# Measured values taken from patent US9718869B2, “Peptide-based compounds and uses thereof to treat beta-amyloid accumulation” (MANUS PHARMACEUTICALS (CANADA) LTD., priority 2012, dated 2017).
# Where “and” joins values, the source holds several entries; their conditions need not be identical. Equal values may be shown once. Entries after “also recorded” stand apart in the source; their conditions may differ. Read-outs that look alike come from different tables or passages of the source. No end group written: not given here.
# Experiments:
# bulbectomized mice = assay: Morris water maze spatial memory test, bulbectomized mice immunized with (FR-3-NP-1)2-Lys-OH / (R-2-FR-3-NP-1)2-Lys-OH in IFA (Example 3); format: in vivo, NMRI mice; settings: four immunizations with IFA; for Number of visits to the training/rescue compartment (in words) / Time spent in the training/rescue compartment (in words): BE mice
# Method: Immunization was carried out in four stages.
# Each group consisted of 5-8 mice.
# bulbectomized (BE) mice [1] = assay: Morris water maze spatial memory test, bulbectomized mice immunized with NP-1 / R-1-NP-1 in IFA (Example 1); format: in vivo, NMRI mice; settings: for Ratio of sector visits to total number of all visits, sector 1 / Ratio of sector visits to total number of all visits, sector 2 / Ratio of sector visits to total number of all visits, sector 3 (training sector with platform) / Ratio of sector visits to total number of all visits, sector 4 / Time spent in sector 1 / Time spent in sector 2 / Time spent in sector 3 (training sector with platform) / Time spent in sector 4: BE (bulbectomized) mice, 4 immunizations with IFA, 1 min memory test; for Effect of immunization on spatial memory of BE mice (in words): immunization with IFA, no complete Freund's adjuvant
# Method: The immunization was carried out in four stages.
# This method enables separate evaluation of learning and memory.
# β-amyloid (1-40) [2] = assay: ELISA of β-amyloid (1-40) in brain (cortex+hippocampus) of bulbectomized immunized mice; format: in vivo, NMRI mice; settings: for Average level of βA / Individual levels of βA: BE (bulbectomized) mice, cortex+hippocampus; for Individual levels of βA: one value per mouse
# Method: (§1) To collect brain structures to determine the biochemical level of β-amyloid, mice were decapitated and the brain was removed in the cold. The cortex was removed by scalpel from both hemispheres, the hippocampus was bilaterally removed, the probes were placed in labeled plastic test tubes that were frozen at −80° C. and stored in a freezer until the biochemical study of the level of β-amyloid.
# (§2) Biochemical identification of β-amyloid (1-40) by enzyme immunoassay was performed as follows: samples of the cortex and hippocampus, which were stored at −80° C. after collection, were weighed, thawed at room temperature, and then homogenized in a solution of 2% CHAPS 20 mM Tris-HCl (pH 7.7) in the presence of protease inhibitors (10 μg/ml leupeptin, 10 μg/ml aprotinin and 10 μg/ml AEBSF) in a volume calculated for each sample (4 ml of solution per 1 g of tissue), using a RT-12 tissue microgrinder in a glass beaker for the homogenization using a ground-glass pestle. Homogenates were centrifuged at 21,000 g at 4° C. for 30 min. Selected supernatants were stored at −80° C. and thawed immediately prior to the immunoassay analysis.
# Another part of the samples were homogenized in 5 M guanidine-HCl solution of 50 mM Tris-HCl (pH 8.0), in a volume calculated for each sample (400 mcl of solution per 50 mg of tissue). The samples were stirred for 3-4 hours at room temperature, then diluted in BSAT-DPBS (5% BSA, 0.03% Tween-20) buffer, centrifuged at 21,000 g at 4° C. for 30 min, after which the supernatants were collected.
# The immunosorbent assay was performed using the instructions on the ELISA for the determination of β-amyloid (1-40) (Aβ40) mouse (ELISA kit mouse Aβ40, Invitrogen).
# After testing the memory of all groups of animals, brain perfusion was carried out in the cold under deep anaesthesia, and individual samples of brain tissue (cortex+hippocampus) were collected, which were stored in a freezer at a temperature of −80° C. until biochemical studies.
# sham operated (SO) mice = settings: mouse, in vivo
# Method: Experiments were performed on NMRI mice weighing 20-30 g. Initiation of Alzheimer's type neurodegenerative process was caused by the removal of the animal's olfactory bulb (bulbectomy). The operation was performed under sterile conditions under nembutal anesthesia (40 mg/kg). For local anaesthesia during scalping, a subcutaneous injection of 0.5% solution of novocaine was used. […] A group of animals to serve as control was sham-operated (SO); these animals were subjected to the same procedure but without removal of the olfactory bulbs. After surgery all animals were injected with “Bitsillin 5” antibiotic into the muscles of the hind paw at a dose of 6000 units for the prevention of infection. Upon completion of behavioral experiments, morphological studies of animal brains were conducted to ensure complete removal of olfactory bulbs.
# The state of spatial memory was assessed after mice had developed spatial skills in the Morris water maze, which combines training in the formation of active avoidance and the ability to navigate in space. This method enables separate evaluation of learning and memory.
# The experimental chamber was a plastic pool of dimensions 100×60×30 cm, filled with water at a temperature of 23 degrees Celsius. […] The water was clouded with milk so that animals could not visually detect the rescue platform.
# All mice were pre-tested for the ability to swim and absence of an original sector preference in the water maze. The goal of the education was to have mice in one minute find the underwater platform and remember its location. Training was conducted in four sessions every day for five days, and the latency period for finding the platform was recorded for every session. 24 hours after completion of training, the level of the animal's spatial memory in the absence of a rescue platform was tested for one minute. Two indicators were used in analyzing the results: the number of visits to each sector of the maze and time spent in each sector.
# Two-factor analysis (general ANOVA) was used for statistical analysis of behavioral data. Post-hoc analysis was performed using the criterion of LSD (least significant difference). The reliability of the results was also evaluated using two-tailed Student's t-test.
# β-amyloid (1-40) [3] = settings: mouse, in vivo
# Method: as §1, §2
# Another part of the samples were homogenized in 5 M guanidine-HCl solution of 50 mM Tris-HCl (pH 8.0), in a volume calculated for each sample (400 mcl of solution per 50 mg of tissue). […]
# [4] = system: animals with experimentally induced AD; settings: cited from earlier work
# bulbectomized (BE) mice [5] = assay: Morris water maze spatial memory test, bulbectomized mice immunized with KLH conjugates of NP-1 fragments (Example 2); format: in vivo, NMRI mice; settings: KLH conjugate, 1st immunization CFA, 2nd IFA, 0.1 mg/mouse
# Method: NMRI mice (see Example 1) were immunized with peptides conjugated to snail keyhole limpet hemocyanin (KLH).
# In this study, a scheme with a double introduction of peptides into mice with complete Freund's adjuvant (CFA) for the first immunization and incomplete Freund's adjuvant (IFA) for the second immunization was used. Between the first and second immunization a bulbectomy was performed. After the second immunization, one month after bulbectomy, the mice's state of spatial memory was tested, after which the mice were put down and their blood and cerebrospinal fluid were collected to determine their level of antipeptide antibodies.
# To prepare the peptide conjugates with KLH, 0.75 mg of peptide was dissolved in 0.65 ml of KLH in PBS with a protein concentration of 5.8 mg/ml and stirred for an hour while adding 38 μl of 2.5% glutaraldehyde solution in PBS. The resulting solution was stirred for 15 hours and dialyzed against PBS for 20 hours.
# Tables 12 and 13 present the results of statistical analysis of spatial memory test data using univariate analysis (one-way ANOVA), to judge the ability of the animal to distinguish sections of the Morris water maze.
substance,measurement,setting,value
(cyclo(Ala-Glu)(Trp-Ser-Glu-Arg-Phe-Tyr-Glu-Cys-Cys-Lys-Glu))2-Lys-OH ({cyclo(Ala-Glu)}-WSERFYECCKEK-OH; cysteine pairing not given here; also: dimer: two chains joined on Lys-OH) [(R-2-FR-3-NP-1)2-Lys-OH],Number of visits to the training/rescue compartment (in words),bulbectomized mice,preferred the second and third compartments
same,Time spent in the training/rescue compartment (in words),bulbectomized mice,selected the third compartment with statistical significance
Ser-Glu-Arg-Phe-Tyr-Glu-Cys-Cys-Lys-Glu-Lys(Ser-Glu-Arg-Phe-Tyr-Glu-Cys-Cys-Lys-Glu)-OH [(FR-3-NP-1)2-Lys-OH],Number of visits to the training/rescue compartment (in words),bulbectomized mice,much worse
same,Time spent in the training/rescue compartment (in words),bulbectomized mice,much worse
same,Effect of immunization on spatial memory of BE mice (in words),bulbectomized mice,only a slight tendency towards improvement of spatial memory
"EWDLVGIPGKRSERFYECCKE (cysteine pairing not given here) [NP-1, 2372355, reference compound]","Ratio of sector visits to total number of all visits, sector 1",bulbectomized (BE) mice [1],26.6 ± 1.54 percentage
same,"Ratio of sector visits to total number of all visits, sector 2",bulbectomized (BE) mice [1],27.8 ± 2.06 percentage
same,"Ratio of sector visits to total number of all visits, sector 3 (training sector with platform)",bulbectomized (BE) mice [1],24.2 ± 0.49 percentage
same,"Ratio of sector visits to total number of all visits, sector 4",bulbectomized (BE) mice [1],21.2 ± 1.6 percentage
same,Time spent in sector 1,bulbectomized (BE) mice [1],17 ± 0.84 s
same,Time spent in sector 2,bulbectomized (BE) mice [1],15.2 ± 1.69 s
same,Time spent in sector 3 (training sector with platform),bulbectomized (BE) mice [1],16 ± 11.14 s
same,Time spent in sector 4,bulbectomized (BE) mice [1],11.8 ± 1.91 s
same,Effect of immunization on spatial memory of BE mice (in words),bulbectomized (BE) mice [1],not capable of recalling the training sector; also recorded: did not improve their memory; also recorded: did not show protective activity; also recorded: did not exhibit memory protection
same,Change of βA level versus non-immunized BE mice (in words),β-amyloid (1-40) [2],significant reduction of β-amyloid
same,Average level of βA,β-amyloid (1-40) [2],2.44 ± 0.38 ng/g tissue
same,Individual levels of βA,β-amyloid (1-40) [2],3.039 ng/g tissue and 2.316 ng/g tissue and 3.324 ng/g tissue and 1.115 ng/g tissue and 2.408 ng/g tissue
same,"Ratio of sector visits to total number of all visits, sector 1",sham operated (SO) mice,14.5 ± 1.89 percentage
same,"Ratio of sector visits to total number of all visits, sector 2",sham operated (SO) mice,27.5 ± 2.1 percentage
same,"Ratio of sector visits to total number of all visits, sector 3 (training sector with platform)",sham operated (SO) mice,40.75 ± 3.15 percentage
same,"Ratio of sector visits to total number of all visits, sector 4",sham operated (SO) mice,18 ± 2.08 percentage
same,Time spent in sector 1,sham operated (SO) mice,10.5 ± 2.25 s
same,Time spent in sector 2,sham operated (SO) mice,13 ± 1.68 s
same,Time spent in sector 3 (training sector with platform),sham operated (SO) mice,27.5 ± 1.5 s
same,Time spent in sector 4,sham operated (SO) mice,9 ± 1.58 s
same,Average level of βA,β-amyloid (1-40) [3],3.22 ± 0.38 ng/g tissue
same,Brain levels of βA (in words),[4]; animals with experimentally induced AD,prevented an increase in brain levels of βA
same,Antibodies produced by immunization (in words),[4]; in vivo,produced antibodies capable of binding to the type α7 AChRs
same,Spatial memory in healthy animals (in words),[4]; in vivo,did not lead to deterioration of spatial memory
SERFYECCKE (cysteine pairing not given here) [FR-3-NP-1],"Ratio of sector visits to total number of all visits, sector 1",bulbectomized (BE) mice [5],20.75 ± 1.25 percentage
same,"Ratio of sector visits to total number of all visits, sector 2",bulbectomized (BE) mice [5],26.25 ± 2.95 percentage
same,"Ratio of sector visits to total number of all visits, sector 3 (training sector with platform)",bulbectomized (BE) mice [5],32.0 ± 4.3 percentage
same,"Ratio of sector visits to total number of all visits, sector 4",bulbectomized (BE) mice [5],21.0 ± 2.38 percentage
same,Time spent in sector 1,bulbectomized (BE) mice [5],13.0 ± 1.91 s
same,Time spent in sector 2,bulbectomized (BE) mice [5],13.75 ± 2.1 s
same,Time spent in sector 3 (training sector with platform),bulbectomized (BE) mice [5],25.25 ± 3.47 s
same,Time spent in sector 4,bulbectomized (BE) mice [5],8.0 ± 1.58 s
cyclo(Ala-Glu)-Trp-(Glu-Trp-Asp-Leu-Val-Gly-Ile-Pro-Gly-Lys-Arg-Ser-Glu-Arg-Phe-Tyr-Cys-Cys-Lys-Glu) ({cyclo(Ala-Glu)}-WEWDLVGIPGKRSERFYCCKE; cysteine pairing not given here) [R-1-NP-1],"Ratio of sector visits to total number of all visits, sector 1",bulbectomized (BE) mice [1],20.67 ± 2.2 percentage
same,"Ratio of sector visits to total number of all visits, sector 2",bulbectomized (BE) mice [1],27 ± 1.46 percentage
same,"Ratio of sector visits to total number of all visits, sector 3 (training sector with platform)",bulbectomized (BE) mice [1],34.33 ± 2.44 percentage
same,"Ratio of sector visits to total number of all visits, sector 4",bulbectomized (BE) mice [1],18.17 ± 1.49 percentage
same,Time spent in sector 1,bulbectomized (BE) mice [1],12.17 ± 2.06 s
same,Time spent in sector 2,bulbectomized (BE) mice [1],13.67 ± 1.5 s
same,Time spent in sector 3 (training sector with platform),bulbectomized (BE) mice [1],25.33 ± 4.02 s
same,Time spent in sector 4,bulbectomized (BE) mice [1],8.83 ± 1.85 s
same,Effect of immunization on spatial memory of BE mice (in words),bulbectomized (BE) mice [1],showed improvement of spatial memory; also recorded: resulted in improved memory; also recorded: protects the spatial memory; also recorded: led to memory protection
same,Change of βA level versus non-immunized BE mice (in words),β-amyloid (1-40) [2],significant reduction of β-amyloid
same,Average level of βA,β-amyloid (1-40) [2],2.985 ± 0.2 ng/g tissue
same,Individual levels of βA,β-amyloid (1-40) [2],2.525 ng/g tissue and 3.704 ng/g tissue and 3.705 ng/g tissue and 2.398 ng/g tissue and 2.91 ng/g tissue and 2.77 ng/g tissue and 2.882 ng/g tissue
same,"Ratio of sector visits to total number of all visits, sector 1",sham operated (SO) mice,12.4 ± 2.7 percentage
same,"Ratio of sector visits to total number of all visits, sector 2",sham operated (SO) mice,26 ± 2.86 percentage
same,"Ratio of sector visits to total number of all visits, sector 3 (training sector with platform)",sham operated (SO) mice,40 ± 2.19 percentage
same,"Ratio of sector visits to total number of all visits, sector 4",sham operated (SO) mice,22.2 ± 3.18 percentage
same,Time spent in sector 1,sham operated (SO) mice,7.2 ± 1.83 s
same,Time spent in sector 2,sham operated (SO) mice,14 ± 2.43 s
same,Time spent in sector 3 (training sector with platform),sham operated (SO) mice,30.41 ± 2.42 s
same,Time spent in sector 4,sham operated (SO) mice,8.4 ± 1.96 s
same,Average level of βA,β-amyloid (1-40) [3],2.78 ± 0.21 ng/g tissue
EWDLVGIPGKRSERFY [FR-1-NP-1],"Ratio of sector visits to total number of all visits, sector 1",bulbectomized (BE) mice [5],22.17 ± 2.63 percentage
same,"Ratio of sector visits to total number of all visits, sector 2",bulbectomized (BE) mice [5],30.17 ± 1.49 percentage
same,"Ratio of sector visits to total number of all visits, sector 3 (training sector with platform)",bulbectomized (BE) mice [5],30.83 ± 2.32 percentage
same,"Ratio of sector visits to total number of all visits, sector 4",bulbectomized (BE) mice [5],18.33 ± 1.74 percentage
same,Time spent in sector 1,bulbectomized (BE) mice [5],15.83 ± 2.88 s
same,Time spent in sector 2,bulbectomized (BE) mice [5],17.0 ± 2.21 s
same,Time spent in sector 3 (training sector with platform),bulbectomized (BE) mice [5],18.33 ± 2.04 s
same,Time spent in sector 4,bulbectomized (BE) mice [5],8.83 ± 0.7 s
IPGKRSERFY [FR-2-NP-1],"Ratio of sector visits to total number of all visits, sector 1",bulbectomized (BE) mice [5],17.17 ± 2.32 percentage
same,"Ratio of sector visits to total number of all visits, sector 2",bulbectomized (BE) mice [5],34.5 ± 2.05 percentage
same,"Ratio of sector visits to total number of all visits, sector 3 (training sector with platform)",bulbectomized (BE) mice [5],35.51 ± 2.64 percentage
same,"Ratio of sector visits to total number of all visits, sector 4",bulbectomized (BE) mice [5],13.67 ± 2.53 percentage
same,Time spent in sector 1,bulbectomized (BE) mice [5],12.33 ± 2.38 s
same,Time spent in sector 2,bulbectomized (BE) mice [5],18.33 ± 1.82 s
same,Time spent in sector 3 (training sector with platform),bulbectomized (BE) mice [5],20.1 ± 1.86 s
same,Time spent in sector 4,bulbectomized (BE) mice [5],8.33 ± 1.98 s
